The text below walks through data of US9895338B1, “Cobalt-polypyridyl complex for treatment of cancer, a pharmaceutical composition and a kit comprising it” (Macau University of Science and Technology, priority 2016, dated 2018).

Data set [1] in a line: Body weight in mouse lung cancer xenograft model. The data set is classed as in vivo. The conditions noted are these: IP 40 mg/kg/day, tumor-bearing mice. The text has this: The mice were maintained under specific pathogen-free condition in a 12-h light-dark cycle. Experimental conditions were followed in accordance to the “Institutional AnimalCare and User Committee guidelines” of the Macau University of Science and Technology. Xenograft mouse model was constructed as previously described (Wong, V. K. et al., Oncotarget, 2016, 7, 9907-9924). LLC-1 Lewis lung cancer cells (1×10^6 cells) were subcutaneously injected in the right dorsal region of the mice. After tumors grew to about 100 mm^3, the mice were randomly divided into 3 groups: 1) the control group, 2) 40 mg/kg cobalt-polypyridyl complex of Formula (IV) group, and 3) 40 mg/kg cobalt-polypyridyl complex of Formula (IV) as chloride, also referenced as (IV)-Cl (water soluble form) group. The cobalt-polypyridyl complex of Formula (IV) was dissolved in 100 μL buffer (PEG400:EtOH:ddH2O=6:1:3), whereas (IV)-Cl (water soluble form) was dissolved in ddH2O. The complexes were then intraperitoneal injected in mice every day. The body weight of each mouse was recorded with the tumor volume determined by Vernier caliper using the formula of L×W^2×0.52, where L is the longest diameter of tumor and W is the shortest diameter of tumor. Mice with tumor implants were sacrificed after 10 days when the tumor size of vehicle control group reached above 1000 mm^3 due to animal ethical issue.

The next data set has as its system A549 (lung cancer). As to the kind of experiment: MTT cytotoxicity assay, A549. The data set is classed as cell-based. The conditions noted are these: 72 h. Here is the method:
(§1) All prepared cobalt-polypyridyl complexes were dissolved in DMSO at a final concentration of 50 mmol/L and stored at −20° C. before use. Cytotoxicity was assessed by using the 3-(4,5-dimethylthiazol-2-yl)-2,5-diphenyltetrazolium bromide (MTT) (5.0 mg/ml) assay as previously described (Wong, V. K. et al., Cell Death Dis, 2013, 4, e720). Briefly, 4×10^3 cells per well were seeded in 96-well plates before drug treatments. After overnight culture, the cells were then exposed to different concentrations of selected compounds (0.039-100 μmol/L) for 72 h. Cells without drug treatment were used as control. Subsequently, MTT (10 μL) solution was added to each well and incubated at 37° C. for 4 h followed by the addition of 100 μL solubilization buffer (10% SDS in 0.01 mol/L HCl) and overnight incubation. A570 nm was then determined in each well on the next day. The percentage of cell viability was calculated using the following formula: Cell viability (%)=Atreated/Acontrol×100. Data were obtained from three independent experiments. Cells include HeLa cells (cervical cancer), MCF-7 (breast cancer), H1299, H1975, A549 and LLC-1 (lung cancer), HepG2 and Hep3B (liver cancer) and LO2 (normal human hepatocytes).

In data set [2] the test system is Taxol-sensitive HCT8 cancer cells. As to the kind of experiment: MTT cytotoxicity, taxol-sensitive HCT8. The data set is classed as cell-based. The settings on record: 72 h. Here is the method:
as §1, with “experiments.” for “experiments. Cells include HeLa cells (cervical cancer), MCF-7 (breast cancer), H1299, H1975, A549 and LLC-1 (lung cancer), HepG2 and Hep3B (liver cancer) and LO2 (normal human hepatocytes).”

For data set [3], the system named is OV2008 cervical cancer cells. Briefly: MTT cytotoxicity, OV2008 (cisplatin-sensitive). The data set is classed as cell-based. The settings on record: 72 h. Here is the method: as §1, with “experiments.” for “experiments. Cells include HeLa cells (cervical cancer), MCF-7 (breast cancer), H1299, H1975, A549 and LLC-1 (lung cancer), HepG2 and Hep3B (liver cancer) and LO2 (normal human hepatocytes).”
(§2) Cisplatin-sensitive or -resistant A2780, OV2008 and C13 cancer cells were provided by Prof. Benjamin Tsang (Department of Obstetrics and Gynecology and Department of Cellular and Molecular Medicine, University of Ottawa, Canada). HCT116 p53^+/+ and p53^−/− isogenic human colon cancer cells were provided by Professor Bert Vogelstein (Ludwig Center at Johns Hopkins, Howard Hughes Medical Institute, USA). All media were supplemented with 10% fetal bovine serum and the antibiotics penicillin (50 U/ml) and streptomycin (50 μg/ml; Invitrogen, Paisley, Scotland, UK). All cell cultures were incubated at 37° C. in a 5% humidified CO2 incubator.

In data set [4] the test system is Taxol-sensitive A549 cancer cells. Briefly: MTT cytotoxicity, taxol-sensitive A549. The data set is classed as cell-based. The conditions noted are these: 72 h. On the procedure: as §1, with “experiments.” for “experiments. Cells include HeLa cells (cervical cancer), MCF-7 (breast cancer), H1299, H1975, A549 and LLC-1 (lung cancer), HepG2 and Hep3B (liver cancer) and LO2 (normal human hepatocytes).”

The subject of data set [5] is cisplatin-sensitive SGC-7901 gastric cancer cells. As to the kind of experiment: MTT cytotoxicity, cisplatin-sensitive SGC-7901. The data set is classed as cell-based. The settings on record: SGC-7901, MTT, 72 h. Here is the method: as §1, with “experiments.” for “experiments. Cells include HeLa cells (cervical cancer), MCF-7 (breast cancer), H1299, H1975, A549 and LLC-1 (lung cancer), HepG2 and Hep3B (liver cancer) and LO2 (normal human hepatocytes).”

The subject of another data set is H1975 (lung cancer). Briefly: MTT cytotoxicity assay, H1975. The data set is classed as cell-based. The settings on record: 72 h. On the procedure: as §1
Data set [6] deals with HeLa cells (cervical cancer). As to the kind of experiment: MTT cytotoxicity assay, HeLa. The data set is classed as cell-based. The settings on record: 72 h. Here is the method: as §1
In the next data set the test system is LLC-1 (lung cancer). Briefly: MTT cytotoxicity assay, LLC-1. The settings on record: LLC-1, MTT, 72 h. The data set is classed as cell-based. On the procedure: as §1
In the next data set the test system is MCF-7 (breast cancer). As to the kind of experiment: MTT cytotoxicity assay, MCF-7. The data set is classed as cell-based. The conditions noted are these: MCF-7, MTT, 72 h. On the procedure: as §1
The subject of data set [7] is LO2 (normal human hepatocytes). As to the kind of experiment: MTT cytotoxicity assay, LO2. The data set is classed as cell-based. The conditions noted are these: 72 h. On the procedure: as §1
Data set [8] deals with Taxol-resistant MCF-7 cancer cells. As to the kind of experiment: MTT cytotoxicity, taxol-resistant MCF-7. The data set is classed as cell-based. Here is the method:
as §1, with “experiments.” for “experiments. Cells include HeLa cells (cervical cancer), MCF-7 (breast cancer), H1299, H1975, A549 and LLC-1 (lung cancer), HepG2 and Hep3B (liver cancer) and LO2 (normal human hepatocytes).”
(§3) All cells were obtained from the American Type Culture Collection (Rockville, Md., USA) unless otherwise specified. Immortalized wild-type and Atg7-deficient mouse embryonic fibroblasts (MEFs) were provided by Professor Masaaki Komatsu (Juntendo University, School of Medicine, Japan). Taxol-resistant types of A549, MCF-7, HCT-8 cancer cells, cisplatin-resistant SGC7901 cancer cells were purchased from KeyGEN BioTECH, China.

Data set [9] has as its system HCT116 p53^−/− colon cancer cells. As to the kind of experiment: MTT cytotoxicity, HCT116 p53-/-. The data set is classed as cell-based, human. On the procedure:
as §1, with “experiments.” for “experiments. Cells include HeLa cells (cervical cancer), MCF-7 (breast cancer), H1299, H1975, A549 and LLC-1 (lung cancer), HepG2 and Hep3B (liver cancer) and LO2 (normal human hepatocytes).”
as §2

The subject of data set [10] is Taxol-resistant A549 cancer cells. As to the kind of experiment: MTT cytotoxicity, taxol-resistant A549. The data set is classed as cell-based. On the procedure: as §1, with “experiments.” for “experiments. Cells include HeLa cells (cervical cancer), MCF-7 (breast cancer), H1299, H1975, A549 and LLC-1 (lung cancer), HepG2 and Hep3B (liver cancer) and LO2 (normal human hepatocytes).”
as §3

Another data set relates to HepG2 (liver cancer). Briefly: MTT cytotoxicity assay, HepG2. The data set is classed as cell-based. The conditions noted are these: 72 h. Here is the method:
as §1

Data set [11] deals with HCT116 p53^+/+ colon cancer cells. As to the kind of experiment: MTT cytotoxicity, HCT116 p53+/+. The data set is classed as cell-based, human. The conditions noted are these: 72 h. Here is the method: as §1, with “experiments.” for “experiments. Cells include HeLa cells (cervical cancer), MCF-7 (breast cancer), H1299, H1975, A549 and LLC-1 (lung cancer), HepG2 and Hep3B (liver cancer) and LO2 (normal human hepatocytes).”
as §2

Data set [12] concerns Taxol-sensitive MCF-7 cancer cells. Briefly: MTT cytotoxicity, taxol-sensitive MCF-7. The data set is classed as cell-based. The conditions noted are these: MCF-7, MTT, 72 h. Here is the method: as §1, with “experiments.” for “experiments. Cells include HeLa cells (cervical cancer), MCF-7 (breast cancer), H1299, H1975, A549 and LLC-1 (lung cancer), HepG2 and Hep3B (liver cancer) and LO2 (normal human hepatocytes).”

In data set [13] the test system is cisplatin-sensitive A2780 ovarian cancer cells. Briefly: MTT cytotoxicity, cisplatin-sensitive A2780. The data set is classed as cell-based. The settings on record: 72 h. On the procedure: as §1, with “experiments.” for “experiments. Cells include HeLa cells (cervical cancer), MCF-7 (breast cancer), H1299, H1975, A549 and LLC-1 (lung cancer), HepG2 and Hep3B (liver cancer) and LO2 (normal human hepatocytes).”
as §2

The test system of data set [14] is cisplatin-resistant SGC-7901 gastric cancer cells. Briefly: MTT cytotoxicity, cisplatin-resistant SGC-7901. The data set is classed as cell-based. On the procedure: as §1, with “experiments.” for “experiments. Cells include HeLa cells (cervical cancer), MCF-7 (breast cancer), H1299, H1975, A549 and LLC-1 (lung cancer), HepG2 and Hep3B (liver cancer) and LO2 (normal human hepatocytes).”
as §3

The test system of data set [15] is Taxol-resistant HCT8 cancer cells. Briefly: MTT cytotoxicity, taxol-resistant HCT8. The data set is classed as cell-based. On the procedure:
as §1, with “experiments.” for “experiments. Cells include HeLa cells (cervical cancer), MCF-7 (breast cancer), H1299, H1975, A549 and LLC-1 (lung cancer), HepG2 and Hep3B (liver cancer) and LO2 (normal human hepatocytes).”
as §3

The test system of data set [16] is OV2008/C13 cervical cancer cells. Briefly: MTT cytotoxicity, OV2008/C13 (cisplatin-resistant). The data set is classed as cell-based. Here is the method: as §1, with “experiments.” for “experiments. Cells include HeLa cells (cervical cancer), MCF-7 (breast cancer), H1299, H1975, A549 and LLC-1 (lung cancer), HepG2 and Hep3B (liver cancer) and LO2 (normal human hepatocytes).”
as §2

For the next data set, the system named is H1299 (lung cancer). As to the kind of experiment: MTT cytotoxicity assay, H1299. The data set is classed as cell-based, human. The conditions noted are these: 72 h. Here is the method:
as §1

The subject of data set [17] is cisplatin-resistant A2780 ovarian cancer cells. Briefly: MTT cytotoxicity, cisplatin-resistant A2780. The data set is classed as cell-based. On the procedure:
as §1, with “experiments.” for “experiments. Cells include HeLa cells (cervical cancer), MCF-7 (breast cancer), H1299, H1975, A549 and LLC-1 (lung cancer), HepG2 and Hep3B (liver cancer) and LO2 (normal human hepatocytes).”
as §2

The subject of another data set is Hep 3B (liver cancer). Briefly: MTT cytotoxicity assay, Hep3B. The data set is classed as cell-based. The conditions noted are these: 72 h. On the procedure: as §1

In the case of `Cc1ccnc(-c2cc(C)ccn2)c1.Cc1ccnc(-c2cc(C)ccn2)c1.Cc1ccnc(-c2cc(C)ccn2)c1.[Cl-].[Cl-].[Cl-].[Co+3]` [complex (IV)-Cl], in data set [1], the “reduction in body weight” value is “no significant reduction in body weight”.

In the case of `F[P-](F)(F)(F)(F)F.F[P-](F)(F)(F)(F)F.[Co+2].c1ccc(-c2ccccn2)nc1.c1ccc(-c2ccccn2)nc1.c1ccc(-c2ccccn2)nc1` [complex (V), [Co^II(N^N)3](PF6)2], the half-inhibitory concentration (IC50) in the data set with A549 (lung cancer) turned out to be 26.3 µM; in [2] it was 11.4 µM; in data set [3], 18.9 µM; in data set [4], 29.9 µM; in data set [5], 29.9 µM; in the data set with H1975 (lung cancer), 17 µM. In addition, the half-maximal inhibitory concentration (IC50) in data set [6] is 24.2 µM; in the data set on LLC-1 (lung cancer), 17.2 µM; in the data set with MCF-7 (breast cancer), 15.8 µM; in data set [7] it was 33.6 µM; in data set [8] (MCF-7, MTT, 72 h), 16.8 µM; in data set [9] (MTT, 72 h), 29.1 µM. Further, the IC50 was found to be 7.85 µM in [10] (A549, MTT, 72 h); 13.3 µM in the data set with HepG2 (liver cancer); 34.3 µM in data set [11]; 13.4 µM in [12]; 28.8 µM in [13]; 29.9 µM in [14] (SGC-7901, MTT, 72 h). Besides, the half-maximal inhibitory concentration (IC50) was found to be 7.78 µM in [15] (HCT8, MTT, 72 h); 14.9 µM in data set [16] (OV2008/C13, MTT, 72 h); 9.4 µM in the data set with H1299 (lung cancer); 31.6 µM in data set [17] (A2780, MTT, 72 h); 6.92 µM in the data set with Hep 3B (liver cancer). Besides, the “Resistant Factor” value was determined as 1.25 in data set [8] (MCF-7, IC50 taxol-resistant over IC50 taxol-sensitive); 0.85 in [9] (HCT116 p53^−/− over HCT116 p53^+/+); 0.26 in [10] (A549, IC50 taxol-resistant over IC50 taxol-sensitive); 1.00 in data set [14] (SGC-7901, cisplatin-resistant over cisplatin-sensitive); 0.68 in [15] (HCT8, IC50 taxol-resistant over IC50 taxol-sensitive); 0.79 in data set [16] (OV2008/C13 over OV2008). Besides, in data set [17] (A2780, cisplatin-resistant over cisplatin-sensitive), the “Resistant Factor” value is reported as 1.10.
